Test results reported in PMC7168327, “Designed Antimicrobial Peptides for Topical Treatment of Antibiotic Resistant Acne Vulgaris” (Antibiotics, 2020).
Converted amounts (≈) assume the structure as drawn. Square brackets hold non-standard residues; d marks the D form. Peptide text beside a SMILES is read from it. Orn = NCCC[C@H](N)C(=O)O

Assays:
[1] = tested on: C. acnes HL072PA1; format: cell-based, Cutibacterium acnes; conditions: HL072PA1, 48 h
Protocol: (§1) The ten antibiotic resistant C. acnes clinical isolates were acquired from BEI resources with the two reference strains obtained from American Type Culture Collection (ATCC, Manassas, VA, USA). C. acnes is a relatively slow-growing, typically aerotolerant anaerobic so all in vitro C. acnes experiments were performed under anaerobic conditions.
(§2) Single colonies were inoculated in Reinforced Clostridium Medium (RCM) broth supplemented with sodium thioglycolate and incubated at 37 °C, with shaking at 200 rpm, for 2 or 3 days to reach logarithmic growth (OD600nm = 1.0). Each C. acnes (1 × 10^6 CFU per mL) was incubated with dAMP or clindamycin at two-fold serial dilutions (0.5–32 μg per mL) in RCM on a 96-well microplate for 48 h. Three replicas were included for each test article concentration. Bacterial growth was measured by optical density at 600 nm to determine the MIC for each dAMP applied.

[2] = tested on: C. acnes HL053PA1; format: cell-based, Cutibacterium acnes; conditions: HL053PA1, 48 h
Protocol: as §1, §2

[3] = tested on: C. acnes HL045PA1; format: cell-based, Cutibacterium acnes; conditions: HL045PA1, 48 h
Protocol: as §1, §2

[4] = tested on: C. acnes HL007PA1; format: cell-based, Cutibacterium acnes; conditions: HL007PA1, 48 h
Protocol: as §1, §2

[5] = tested on: C. acnes ATCC6919; format: cell-based, Cutibacterium acnes; conditions: ATCC6919, 48 h
Protocol: as §1, §2

[6] = tested on: C. acnes HL043PA2; format: cell-based, Cutibacterium acnes; conditions: HL043PA2, 48 h
Protocol: as §1, §2

[7] = tested on: C. acnes HL043PA1; format: cell-based, Cutibacterium acnes; conditions: HL043PA1, 48 h
Protocol: as §1, §2

[8] = tested on: C. acnes HL038PA1; format: cell-based, Cutibacterium acnes; conditions: HL038PA1, 48 h
Protocol: as §1, §2

[9] = tested on: C. acnes HL082PA2; format: cell-based, Cutibacterium acnes; conditions: HL082PA2, 48 h
Protocol: as §1, §2

[10] = tested on: C. acnes HL056PA1; format: cell-based, Cutibacterium acnes; conditions: HL056PA1, 48 h
Protocol: as §1, §2

[11] = tested on: C. acnes HL013PA1; format: cell-based, Cutibacterium acnes; conditions: HL013PA1, 48 h
Protocol: as §1, §2

[12] = tested on: ten C. acnes clinical isolates and two C. acnes ATCC reference strains; format: cell-based, Cutibacterium acnes; conditions: for in vitro anti-bacterial activity against the C. acnes bacterial strains (in words): 0.5–32 μg/mL concentration range evaluated; for MIC values against all C. acnes isolates: ten clinical isolates and two ATCC reference strains, 48 h
Protocol: as §1, §2

[13] = tested on: C. acnes ATCC11827; format: cell-based, Cutibacterium acnes; conditions: ATCC11827, 48 h
Protocol: as §1, §2

[14] = tested on: C. acnes HL043PA2 compared to human keratinocytes; format: cell-based; conditions: 8 h
Protocol: In evaluating the clinical utility of each of the candidate dAMPs for C. acnes treatment, the Therapeutic Index was determined. The Therapeutic Index is defined as the ratio of concentration at which the dAMP is active against the prokaryotic C. acnes pathogen without inducing cytotoxic damage to the surrounding mammalian cells. The EC10 and EC50 doses, defined as the concentrations required to kill 10% and 50% respectively of human keratinocytes following 8 h incubation with each of the Riptide dAMPs, are tabulated and graphed in Table 2 and Figure 3, respectively. The larger the Therapeutic Index, the greater the specificity of the dAMP for destroying C. acnes cells.
as §2
(§3) Noninvasive and real-time monitoring of mammalian cytotoxicity to assess the potential skin toxicity of the dAMPs was evaluated using bioluminescent human immortalized keratinocytes (HaCaT, AddexBio, San Diego, CA, USA). The bioluminescent variant of HaCaT was constructed by transfection with a luciferase gene (RediFect Red-Fluc-Puromycin, Cat# CL596002). Keratinocytes (1 × 10^4 cells, 100 μL) were plated in 96-well black-walled plates. The candidate dAMPs were 2-fold serially diluted from 1024 µg/mL in growth medium supplemented with 150 µg/mL D-luciferin. Each concentration was performed in triplicate, with the final volume being 200 μL. Imaging was performed at select times (0, 15, and 30 min and 1, 3, 5, and 8 h) after the addition of the dAMP, and compared to concurrently run vehicle-control, using an IVIS Lumina imaging system (Caliper Life Sciences, Inc., Hopkinton, MA, USA). For imaging, the 96-well plate was positioned on the stage (12.5-cm field of view), with an open emission filter, binning of 4, and f-stop 1 and a 1-min exposure time. Data analysis was performed using the Living Image software program (version 4.3, Caliper Life Sciences, Inc.). The dAMP concentrations required to kill 10% and 50% of keratinocytes were determined using GraphPad Prism 7 (GraphPad Software, San Diego, CA, USA).

[15] = tested on: bioluminescent human immortalized keratinocytes (HaCaT); assay: Mammalian cytotoxicity, bioluminescent human keratinocytes; format: cell-based; conditions: 8 h
Protocol: as §3

C[C@H](NC(=O)[C@H](Cc1ccccc1)NC(=O)[C@H](C)NC(=O)[C@H](Cc1ccccc1)NC(=O)[C@H](CCCN)NC(=O)[C@H](C)NC(=O)[C@H](Cc1ccccc1)NC(=O)[C@H](CCCN)NC(=O)[C@H](CCCN)NC(=O)[C@H](C)NC(=O)[C@H](Cc1ccccc1)NC(=O)[C@H](CCCN)NC(=O)[C@H](CCCN)NC(=O)[C@H](Cc1ccccc1)NC(=O)[C@H](CCCN)NC(=O)[C@H](CCCN)NC(=O)[C@H](C)NC(=O)[C@H](Cc1ccccc1)NC(=O)[C@H](CCCN)NC(=O)[C@H](CCCN)NC(=O)[C@H](C)NC(=O)[C@@H](N)Cc1ccccc1)C(=O)N[C@@H](Cc1ccccc1)C(N)=O [RP444] (H-FA[Orn][Orn]FA[Orn][Orn]F[Orn][Orn]FA[Orn][Orn]FA[Orn]FAFAF-NH2)
MIC [1]: 8 µg/mL (≈ 3.02 µM) | MIC [2]: 4 µg/mL (≈ 1.51 µM) | MIC [3]: 4 µg/mL (≈ 1.51 µM) | MIC [4]: 4 µg/mL (≈ 1.51 µM) | MIC [5]: 2 µg/mL (≈ 0.755 µM) | MIC [6]: 8 µg/mL (≈ 3.02 µM) | MIC [7]: 4 µg/mL (≈ 1.51 µM) | MIC [8]: 4 µg/mL (≈ 1.51 µM) | MIC [9]: 2 µg/mL (≈ 0.755 µM) | MIC [10]: 4 µg/mL (≈ 1.51 µM) | MIC [11]: 4 µg/mL (≈ 1.51 µM) | in vitro anti-bacterial activity against the C. acnes bacterial strains (in words) [12]: most active | MIC values against all C. acnes isolates [12]: 2 to 8 µg/mL | MIC [13]: 8 µg/mL (≈ 3.02 µM) | Therapeutic Index (EC10 / MIC) [14]: 1.63 | Therapeutic Index (EC50 / MIC) [14]: 2.5 | EC50, concentration required to kill 50% of human keratinocytes [15]: 20 µg/mL

CC[C@H](C)[C@H](NC(=O)[C@H](Cc1ccccc1)NC(=O)[C@H](CCCN)NC(=O)[C@H](CCCCN)NC(=O)[C@H](Cc1ccccc1)NC(=O)[C@H](CCCN)NC(=O)[C@H](CCCCN)NC(=O)[C@H](C)NC(=O)[C@H](Cc1ccccc1)NC(=O)[C@H](CCCCN)NC(=O)[C@H](CCCN)NC(=O)[C@@H](NC(=O)[C@@H](N)Cc1ccccc1)[C@@H](C)CC)C(=O)N[C@@H](CCCN)C(=O)N[C@@H](CCCCN)C(=O)N[C@@H](Cc1ccccc1)C(=O)N[C@@H](C)C(=O)N[C@@H](CCCCN)C(=O)N[C@@H](Cc1ccccc1)C(=O)N[C@@H](C)C(=O)N[C@@H](Cc1ccccc1)C(=O)N[C@@H](C)C(=O)N[C@@H](Cc1ccccc1)C(N)=O [RP551] (H-FI[Orn]KFAK[Orn]FK[Orn]FI[Orn]KFAKFAFAF-NH2)
MIC [1]: 2 to 4 µg/mL | MIC [2]: 2 µg/mL (≈ 0.714 µM) | MIC [3]: 2 µg/mL (≈ 0.714 µM) | MIC [4]: 2 µg/mL (≈ 0.714 µM) | MIC [5]: 2 µg/mL (≈ 0.714 µM) | MIC [6]: 2 µg/mL (≈ 0.714 µM) | MIC [7]: 2 µg/mL (≈ 0.714 µM) | MIC [8]: 2 µg/mL (≈ 0.714 µM) | MIC [9]: 2 µg/mL (≈ 0.714 µM) | MIC [10]: 2 µg/mL (≈ 0.714 µM) | MIC [11]: 2 µg/mL (≈ 0.714 µM) | in vitro anti-bacterial activity against the C. acnes bacterial strains (in words) [12]: most active | MIC values against all C. acnes isolates [12]: 2 to 8 µg/mL | MIC [13]: 2 to 4 µg/mL | Therapeutic Index (EC10 / MIC) [14]: 8.3 | Therapeutic Index (EC50 / MIC) [14]: 17.2 | EC50, concentration required to kill 50% of human keratinocytes [15]: 34.3 µg/mL

CC[C@H](C)[C@H](NC(=O)[C@H](CCCCN)NC(=O)[C@H](CC(C)C)NC(=O)[C@H](CCCN)NC(=O)[C@H](CC(C)C)NC(=O)[C@H](CCCNC(=N)N)NC(=O)[C@H](C)NC(=O)[C@H](CCCNC(=N)N)NC(=O)[C@@H](NC(=O)[C@H](CCCN)NC(=O)[C@H](Cc1ccccc1)NC(=O)[C@H](CCCNC(=N)N)NC(=O)[C@H](C)NC(=O)[C@H](CCCCN)NC(=O)[C@@H](NC(=O)[C@H](CCCN)NC(=O)[C@@H](N)Cc1ccccc1)[C@@H](C)CC)C(C)C)C(N)=O [RP553] (H-F[Orn]IKARF[Orn]VRARL[Orn]LKI-NH2)
MIC [1]: 16 µg/mL (≈ 7.72 µM) | MIC [2]: 16 µg/mL (≈ 7.72 µM) | MIC [3]: 16 µg/mL (≈ 7.72 µM) | MIC [4]: 16 µg/mL (≈ 7.72 µM) | MIC [5]: 8 µg/mL (≈ 3.86 µM) | MIC [6]: 16 µg/mL (≈ 7.72 µM) | MIC [7]: 16 µg/mL (≈ 7.72 µM) | MIC [8]: 16 µg/mL (≈ 7.72 µM) | MIC [9]: 16 µg/mL (≈ 7.72 µM) | MIC [10]: 16 µg/mL (≈ 7.72 µM) | MIC [11]: 8 µg/mL (≈ 3.86 µM) | in vitro anti-bacterial activity against the C. acnes bacterial strains (in words) [12]: modest anti-bacterial activity | MIC [13]: 16 µg/mL (≈ 7.72 µM) | Therapeutic Index (EC50 / MIC) [14]: 16.8 | EC50, concentration required to kill 50% of human keratinocytes [15]: 268 µg/mL

CC[C@H](C)[C@H](NC(=O)[C@H](CCCN)NC(=O)[C@H](C)NC(=O)[C@H](CCCN)NC(=O)[C@H](CC(C)C)NC(=O)[C@H](CCCN)NC(=O)[C@@H](NC(=O)[C@H](CCCN)NC(=O)[C@@H](NC(=O)[C@H](CCCN)NC(=O)[C@H](C)NC(=O)[C@H](CCCN)NC(=O)[C@H](CC(C)C)NC(=O)[C@H](CCCN)NC(=O)[C@@H](N)Cc1ccccc1)[C@@H](C)CC)C(C)C)C(=O)N[C@@H](CCCN)C(=O)N[C@@H](CC(C)C)C(N)=O [RP554] (H-F[Orn]L[Orn]A[Orn]I[Orn]V[Orn]L[Orn]A[Orn]I[Orn]L-NH2)
MIC [1]: 8 µg/mL (≈ 4.25 µM) | MIC [2]: 4 µg/mL (≈ 2.12 µM) | MIC [3]: 4 µg/mL (≈ 2.12 µM) | MIC [4]: 4 µg/mL (≈ 2.12 µM) | MIC [5]: 4 µg/mL (≈ 2.12 µM) | MIC [6]: 8 µg/mL (≈ 4.25 µM) | MIC [7]: 4 µg/mL (≈ 2.12 µM) | MIC [8]: 8 µg/mL (≈ 4.25 µM) | MIC [9]: 8 µg/mL (≈ 4.25 µM) | MIC [10]: 4 µg/mL (≈ 2.12 µM) | MIC [11]: 2 to 4 µg/mL | in vitro anti-bacterial activity against the C. acnes bacterial strains (in words) [12]: most active | MIC values against all C. acnes isolates [12]: 2 to 8 µg/mL | MIC [13]: 8 µg/mL (≈ 4.25 µM) | Therapeutic Index (EC10 / MIC) [14]: 2.38 | Therapeutic Index (EC50 / MIC) [14]: 3.88 | EC50, concentration required to kill 50% of human keratinocytes [15]: 31 µg/mL
